Assay results as given in patent publication US9802901B2, “Antibacterial 2H-indazole derivatives” (priority 2013, dated 2017).
Converted amounts (≈) assume the structure as drawn.

Experiments:
Assay in all cases: Bacterial growth minimal inhibitory concentration (broth microdilution, CLSI M7-A7)
K. pneumoniae A-651 = type: cell-based, Klebsiella pneumoniae; details: cation-adjusted Mueller-Hinton Broth, microdilution, multiply-resistant (quinolone-resistant) strain; for MIC: Klebsiella pneumoniae, A651, read-out: MIC for K. Pneumoniae A-651
Procedure: (§1) Minimal Inhibitory Concentrations (MICs; mg/L) were determined in cation-adjusted Mueller-Hinton Broth by a microdilution method following the description given in “Methods for Dilution Antimicrobial Susceptibility Tests for Bacteria that Grow Aerobically”, Approved standard, 7th ed., Clinical and Laboratory Standards Institute (CLSI) Document M7-A7, Wayne, Pa., USA (2006).
(§2) All Example compounds, except the compound of Example 62, were tested against several Gram-positive and Gram-negative bacteria. […] K. pneumoniae A-651 and Acinetobacter baumannii T6474 are multiply-resistant strains (in particular quinolone-resistant), while E. coli ATCC25922 and P. aeruginosa ATCC27853 are quinolone-sensitive strains.

P. aeruginosa ATCC27853 = type: cell-based, Pseudomonas aeruginosa; details: cation-adjusted Mueller-Hinton Broth, microdilution, quinolone-sensitive strain; for MIC: Pseudomonas aeruginosa, ATCC27853, read-out: MIC for P. aeruginosa ATCC27853
Procedure: as §1, §2

E. coli ATCC25922 = type: cell-based, Escherichia coli; details: cation-adjusted Mueller-Hinton Broth, microdilution, quinolone-sensitive strain; for MIC: Escherichia coli, ATCC25922, read-out: MIC for E. coli ATCC25922
Procedure: as §1, §2

[1] = test system: Acinetobacter baumannii T6474; type: cell-based; details: cation-adjusted Mueller-Hinton Broth, microdilution, multiply-resistant (quinolone-resistant) strain; for MIC: Acinetobacter baumannii, T6474, read-out: MIC for A. Baumannii T6474
Procedure: as §1, §2

MIC (K. pneumoniae A-651) [mg/L]	MIC (P. aeruginosa ATCC27853) [mg/L]	MIC (E. coli ATCC25922) [mg/L]	MIC [1] [mg/L]	MIC for K. Pneumoniae A-651 (K. pneumoniae A-651) [mg/L]	MIC for P. aeruginosa ATCC27853 (P. aeruginosa ATCC27853) [mg/L]	MIC for E. coli ATCC25922 (E. coli ATCC25922)	MIC for A. Baumannii T6474 [1] [mg/L]	Structure (SMILES)
1 (≈ 2.24 µM)	1 (≈ 2.24 µM)	1 (≈ 2.24 µM)	> 32	–	–	–	–	C[C@@](CCn1cc2cc(C#CC#CC3(CO)COC3)ccc2n1)(C(=O)NO)S(C)(=O)=O [Example 68, (R)—N-hydroxy-4-(5-((3-(hydroxymethyl)oxetan-3-yl)buta-1,3-diyn-1-yl)-2H-indazol-2-yl)-2-methyl-2-(methylsulfonyl)butanamide]
0.25 (≈ 0.559 µM)	0.25 (≈ 0.559 µM)	0.125 (≈ 0.279 µM)	4 (≈ 8.94 µM)	–	–	–	–	C[C@@](CCn1cc2cc(C#CC#C[C@H]3C[C@]3(F)CO)ccc2n1)(C(=O)NO)S(C)(=O)=O [Example 77, (R)-4-(5-(((1R,2R)-2-fluoro-2-(hydroxymethyl)cyclopropyl)buta-1,3-diyn-1-yl)-2H-indazol-2-yl)-N-hydroxy-2-methyl-2-(methylsulfonyl)butanamide]
4 (≈ 9.54 µM)	2 (≈ 4.77 µM)	2 (≈ 4.77 µM)	> 32	–	–	–	–	C[C@@](CCn1cc2cc(C#CC#C[C@H](O)CO)ccc2n1)(C(=O)NO)S(C)(=O)=O [Example 55, (R)-4-(5-((S)-5,6-dihydroxyhexa-1,3-diyn-1-yl)-2H-indazol-2-yl)-N-hydroxy-2-methyl-2-(methylsulfonyl)butanamide]
0.5 (≈ 1.16 µM)	0.5 (≈ 1.16 µM)	0.25 (≈ 0.582 µM)	> 32	–	–	–	–	C[C@@](CCn1cc2cc(C#CC#CC3(CO)CC3)ccc2n1)(C(=O)NO)S(C)(=O)=O [Example 56, (R)—N-hydroxy-4-(5-((1-(hydroxymethyl)cyclopropyl)buta-1,3-diyn-1-yl)-2H-indazol-2-yl)-2-methyl-2-(methylsulfonyl)butanamide]
0.063 (≈ 0.152 µM)	16 (≈ 38.7 µM)	0.063 (≈ 0.152 µM)	1 (≈ 2.42 µM)	–	–	–	–	C[C@@](CCn1cc2cc(/C=C/c3ccccc3)ccc2n1)(C(=O)NO)S(C)(=O)=O [Example 17, (R)—N-hydroxy-2-methylsulfonyl-2-methyl-4-[5-((E)-styryl)-indazol-2-yl]-butanamide]
0.125 (≈ 0.282 µM)	0.25 (≈ 0.564 µM)	0.125 (≈ 0.282 µM)	32 (≈ 72.1 µM)	–	–	–	–	C[C@@]1(C#CC#Cc2ccc3nn(CC[C@](C)(C(=O)NO)S(C)(=O)=O)cc3c2)C[C@H]1CO [Example 67, (R)—N-hydroxy-4-(5-(((1R,2R)-2-(hydroxymethyl)-1-methylcyclopropyl)buta-1,3-diyn-1-yl)-2H-indazol-2-yl)-2-methyl-2-(methylsulfonyl)butanamide]
0.15 (≈ 0.36 µM)	0.5 (≈ 1.2 µM)	0.125 (≈ 0.3 µM)	> 32	–	–	–	–	CN(C)CC#CC#Cc1ccc2nn(CC[C@](C)(C(=O)NO)S(C)(=O)=O)cc2c1 [Example 75, (R)-4-(5-(5-(dimethylamino)penta-1,3-diyn-1-yl)-2H-indazol-2-yl)-N-hydroxy-2-methyl-2-(methylsulfonyl)butanamide]
0.125 (≈ 0.279 µM)	0.5 (≈ 1.12 µM)	0.125 (≈ 0.279 µM)	4 (≈ 8.94 µM)	–	–	–	–	C[C@@](CCn1cc2cc(C#CC#C[C@@]3(F)C[C@@H]3CO)ccc2n1)(C(=O)NO)S(C)(=O)=O [Example 74, (R)-4-(5-(((1R,2R)-1-fluoro-2-(hydroxymethyl)cyclopropyl)buta-1,3-diyn-1-yl)-2H-indazol-2-yl)-N-hydroxy-2-methyl-2-(methylsulfonyl)butanamide]
–	–	–	–	0.125	0.25	≦0.063 mg/L	2	C[C@]1(CO)C[C@@H]1C#CC#Cc1ccc2nn(CC[C@](C)(C(=O)NO)S(C)(=O)=O)cc2c1 [Example 69]
–	–	–	–	2	1	0.5 mg/L	4	C[C@@](CCn1cc2cc(C#CC#CC3CCN(C(=O)CO)CC3)ccc2n1)(C(=O)NO)S(C)(=O)=O [Example 78]

More lines, now with the values behind:

Structure (SMILES)	MIC (K. pneumoniae A-651) [mg/L]	MIC (P. aeruginosa ATCC27853) [mg/L]	MIC (E. coli ATCC25922) [mg/L]	MIC [1] [mg/L]	MIC for K. Pneumoniae A-651 (K. pneumoniae A-651) [mg/L]	MIC for P. aeruginosa ATCC27853 (P. aeruginosa ATCC27853) [mg/L]	MIC for E. coli ATCC25922 (E. coli ATCC25922)	MIC for A. Baumannii T6474 [1] [mg/L]
COCCOc1ccc(-c2ccc3nn(CC[C@](C)(C(=O)NO)S(C)(=O)=O)cc3c2)cc1 [Example 52, (R)—N-hydroxy-4-(5-(4-(2-methoxyethoxy)phenyl)-2H-indazol-2-yl)-2-methyl-2-(methylsulfonyl)butanamide]	0.5 (≈ 1.08 µM)	2 (≈ 4.33 µM)	0.125 (≈ 0.271 µM)	1 (≈ 2.17 µM)	–	–	–	–
C[C@@](CCn1cc2cc(C#CC#CC3CN(C(=O)CO)C3)ccc2n1)(C(=O)NO)S(C)(=O)=O [Example 81, (R)—N-hydroxy-4-(5-((1-(2-hydroxyacetyl)azetidin-3-yl)buta-1,3-diyn-1-yl)-2H-indazol-2-yl)-2-methyl-2-(methylsulfonyl)butanamide]	1 (≈ 2.12 µM)	1 (≈ 2.12 µM)	0.5 (≈ 1.06 µM)	4 (≈ 8.47 µM)	–	–	–	–
C[C@@](CCn1cc2cc(C#CC#C[C@@H]3C[C@H]3CO)ccc2n1)(C(=O)NO)S(C)(=O)=O.O=CO [Example 37]	–	–	–	–	0.063	0.25	0.063 mg/L	2
COc1ccc(-c2cc3cn(CC[C@](C)(C(=O)NO)S(C)(=O)=O)nc3cc2F)cc1 [Example 3, (R)-4-[6-fluoro-5-(4-methoxy-phenyl)-indazol-2-yl]-N-hydroxy-2-methylsulfonyl-2-methyl-butanamide]	0.125 (≈ 0.287 µM)	2 (≈ 4.59 µM)	0.063 (≈ 0.145 µM)	0.5 (≈ 1.15 µM)	–	–	–	–
C[C@@](CCn1cc2cc(C#CC#C[C@H]3C[C@@H]3CO)c(F)cc2n1)(C(=O)NO)S(C)(=O)=O [Example 53, (R)-4-(6-fluoro-5-(((1S,2S)-2-(hydroxymethyl)cyclopropyl)buta-1,3-diyn-1-yl)-2H-indazol-2-yl)-N-hydroxy-2-methyl-2-(methylsulfonyl)butanamide]	0.125 (≈ 0.279 µM)	0.5 (≈ 1.12 µM)	≤ 0.063	2 (≈ 4.47 µM)	–	–	–	–
C[C@@H](O)c1ccc(C#Cc2ccc3nn(CC[C@](C)(C(=O)NO)S(C)(=O)=O)cc3c2)cc1 [Example 33, (R)—N-hydroxy-4-(5-((4-((R)-1-hydroxyethyl)phenyl)ethynyl)-2H-indazol-2-yl)-2-methyl-2-(methylsulfonyl)butanamide]	0.125 (≈ 0.274 µM)	0.5 (≈ 1.1 µM)	0.063 (≈ 0.138 µM)	2 (≈ 4.39 µM)	–	–	–	–
C[C@H](O)c1ccc(C#Cc2ccc3nn(CC[C@](C)(C(=O)NO)S(C)(=O)=O)cc3c2)cc1 [Example 34]	–	–	–	–	0.125	0.5	0.063 mg/L	1
C[C@@](CCn1cc2cc(C#Cc3ccc(CO)cc3)ccc2n1)(C(=O)NO)S(C)(=O)=O [Example 21, (R)—N-hydroxy-4-(5-((4-(hydroxymethyl)phenyl)ethynyl)-2H-indazol-2-yl)-2-methyl-2-(methylsulfonyl)butanamide]	0.25 (≈ 0.566 µM)	1 (≈ 2.26 µM)	0.125 (≈ 0.283 µM)	0.5 (≈ 1.13 µM)	–	–	–	–
C[C@@](CCn1cc2cc(C#CC#CC3CN(C(=O)CN)C3)ccc2n1)(C(=O)NO)S(C)(=O)=O [Example 84, (R)-4-(5-((1-glycylazetidin-3-yl)buta-1,3-diyn-1-yl)-2H-indazol-2-yl)-N-hydroxy-2-methyl-2-(methylsulfonyl)butanamide]	4 (≈ 8.48 µM)	0.5 (≈ 1.06 µM)	1 (≈ 2.12 µM)	> 32	–	–	–	–
C[C@@](CCn1cc2cc(-c3ccc(NC(=O)CO)cc3)ccc2n1)(C(=O)NO)S(C)(=O)=O [Example 49, (R)—N-hydroxy-4-(5-(4-(2-hydroxyacetamido)phenyl)-2H-indazol-2-yl)-2-methyl-2-(methylsulfonyl)butanamide]	4 (≈ 8.69 µM)	4 (≈ 8.69 µM)	4 (≈ 8.69 µM)	> 32	–	–	–	–
COc1cccc(-c2ccc3nn(CCC(C)(C(=O)NO)S(C)(=O)=O)cc3c2)c1F (racemic) [RE7, (RS)-4-(5-(2-fluoro-3-methoxyphenyl)-2H-indazol-2-yl)-N-hydroxy-2-methyl-2-(methylsulfonyl)butanamide]	0.125 (≈ 0.287 µM)	2 (≈ 4.59 µM)	0.125 (≈ 0.287 µM)	0.5 (≈ 1.15 µM)	–	–	–	–
C[C@@](CCn1cc2c(F)c(C#CC#CC3(O)COC3)ccc2n1)(C(=O)NO)S(C)(=O)=O [Example 38, (R)-4-{4-fluoro-5-[4-(3-hydroxy-oxetan-3-yl)-buta-1,3-diynyl]-indazol-2-yl}-N-hydroxy-2-methylsulfonyl-2-methyl-butanamide]	1 (≈ 2.22 µM)	1 (≈ 2.22 µM)	0.5 (≈ 1.11 µM)	> 32	–	–	–	–
C[C@@](CCn1cc2c(F)c(C#Cc3ccc(CO)cc3)ccc2n1)(C(=O)NO)S(C)(=O)=O.O=C(O)C(F)(F)F [Example 23, (R)-4-[4-fluoro-5-(4-hydroxymethyl-phenylethynyl)-indazol-2-yl]-N-hydroxy-2-methylsulfonyl-2-methyl-butanamide trifluoro-acetic acid salt]	0.25	4	0.25	1	–	–	–	–
COc1ccc(-c2ccc3nn(CC[C@](C)(C(=O)NO)S(C)(=O)=O)cc3c2F)cc1 [Example 4, (R)-4-[4-fluoro-5-(4-methoxy-phenyl)-indazol-2-yl]-N-hydroxy-2-methylsulfonyl-2-methyl-butanamide]	0.5 (≈ 1.15 µM)	4 (≈ 9.19 µM)	0.125 (≈ 0.287 µM)	2 (≈ 4.59 µM)	–	–	–	–
